These results are taken from patent US10227342B2 (ARIAD PHARMACEUTICALS, INC., priority 2014, dated 2019).

Common to all, as to format: cell-based
Experiment [1] concerns the target human EGFR exon 20 insertion NPG (H773_V774insNPG) (Homo sapiens, UniProt P00533, INS773NPG, cells depend on it). Description: Ba/F3-EGFR-Exon20-NPG cell anti-proliferative assay (CellTiter 96 MTS, 72 h). The conditions noted are these: read-out: EGFR exon 20 NPG insertion IC50.
In experiment [2] the target is Her2 exon 20 YVMA insertion (A775_G776ins YVMA) (Homo sapiens (Human), UniProt P04626, INS775YVMA). Description: Ba/F3-Her2 Exon20 YVMA cell anti-proliferative assay (CellTiter 96 MTS, 72 h). The conditions noted are these: Ba/F3-Her2 Exon20 YVMA cells. The text has this: Ba/F3 cells expressing Her2 Exon20 YVMA insertions (named Ba/F3-Her2 Exon20 YVMA) can proliferate in the absence of IL-3.
Her2 exon 20 YVMA insertion (A775_G776ins YVMA), sequence (P04626 other isoform, or with tags, fused parts or gaps ins YVMA behind 775): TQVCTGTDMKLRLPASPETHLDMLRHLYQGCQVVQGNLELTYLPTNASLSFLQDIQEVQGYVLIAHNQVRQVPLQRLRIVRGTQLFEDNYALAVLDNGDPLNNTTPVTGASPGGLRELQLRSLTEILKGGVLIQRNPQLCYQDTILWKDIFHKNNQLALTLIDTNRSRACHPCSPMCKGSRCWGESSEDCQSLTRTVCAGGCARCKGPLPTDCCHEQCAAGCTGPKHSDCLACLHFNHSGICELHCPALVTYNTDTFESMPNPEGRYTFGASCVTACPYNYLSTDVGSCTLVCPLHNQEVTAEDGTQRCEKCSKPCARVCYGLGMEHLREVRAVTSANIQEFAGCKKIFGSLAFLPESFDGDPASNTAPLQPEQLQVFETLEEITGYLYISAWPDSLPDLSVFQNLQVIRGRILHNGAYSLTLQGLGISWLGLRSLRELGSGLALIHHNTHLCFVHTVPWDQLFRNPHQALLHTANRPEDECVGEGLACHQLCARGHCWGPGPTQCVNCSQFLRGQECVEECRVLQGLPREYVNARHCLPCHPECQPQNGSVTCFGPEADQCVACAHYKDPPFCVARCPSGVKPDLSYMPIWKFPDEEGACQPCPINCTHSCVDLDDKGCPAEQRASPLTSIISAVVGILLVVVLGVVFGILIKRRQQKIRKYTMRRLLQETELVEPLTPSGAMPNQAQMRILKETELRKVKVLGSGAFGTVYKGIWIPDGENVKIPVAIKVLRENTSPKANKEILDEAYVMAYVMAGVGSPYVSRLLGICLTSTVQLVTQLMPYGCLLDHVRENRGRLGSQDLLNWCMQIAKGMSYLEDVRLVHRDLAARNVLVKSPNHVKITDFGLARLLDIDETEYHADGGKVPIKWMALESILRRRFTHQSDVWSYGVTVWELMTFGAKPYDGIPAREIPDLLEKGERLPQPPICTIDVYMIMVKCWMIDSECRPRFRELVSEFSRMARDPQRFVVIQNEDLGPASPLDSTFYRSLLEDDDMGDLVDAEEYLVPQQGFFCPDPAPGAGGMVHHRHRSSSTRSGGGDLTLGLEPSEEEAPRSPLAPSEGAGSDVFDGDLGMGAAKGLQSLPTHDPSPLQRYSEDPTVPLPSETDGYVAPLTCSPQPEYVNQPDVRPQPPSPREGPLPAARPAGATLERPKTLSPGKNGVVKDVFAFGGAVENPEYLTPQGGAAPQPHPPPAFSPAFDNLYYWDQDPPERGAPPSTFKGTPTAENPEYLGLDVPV

Experiment [3] addresses human EGFR E746-A750 deletion and T790M Mutation (DT) (Homo sapiens (Human), UniProt P00533, DEL746-750/T790M). As to the kind of experiment: Ba/F3-EGFR-Del/T790M cell anti-proliferative assay (CellTiter 96 MTS, 72 h). The conditions noted are these: Ba/F3-EGFR-Del/T790M cells; read-out: EGFR exon 19 deletion and T790M mutation IC50.
The target in experiment [4] is human EGFR exon 20 insertion ASV (V769_D770insASV) (Homo sapiens (Human), UniProt P00533, INS769ASV). As to the kind of experiment: Ba/F3-EGFR-Exon20-ASV cell anti-proliferative assay (CellTiter 96 MTS, 72 h).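 Note: Ba/F3 cells bearing the EGFR exon 20 ASV insertion, a line able to proliferate without IL-3.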 The conditions noted are these: Ba/F3-EGFR-Exon20-ASV cells.
human EGFR exon 20 insertion ASV (V769_D770insASV), sequence (P00533 other isoform, or with tags, fused parts or gaps ins ASV behind 769): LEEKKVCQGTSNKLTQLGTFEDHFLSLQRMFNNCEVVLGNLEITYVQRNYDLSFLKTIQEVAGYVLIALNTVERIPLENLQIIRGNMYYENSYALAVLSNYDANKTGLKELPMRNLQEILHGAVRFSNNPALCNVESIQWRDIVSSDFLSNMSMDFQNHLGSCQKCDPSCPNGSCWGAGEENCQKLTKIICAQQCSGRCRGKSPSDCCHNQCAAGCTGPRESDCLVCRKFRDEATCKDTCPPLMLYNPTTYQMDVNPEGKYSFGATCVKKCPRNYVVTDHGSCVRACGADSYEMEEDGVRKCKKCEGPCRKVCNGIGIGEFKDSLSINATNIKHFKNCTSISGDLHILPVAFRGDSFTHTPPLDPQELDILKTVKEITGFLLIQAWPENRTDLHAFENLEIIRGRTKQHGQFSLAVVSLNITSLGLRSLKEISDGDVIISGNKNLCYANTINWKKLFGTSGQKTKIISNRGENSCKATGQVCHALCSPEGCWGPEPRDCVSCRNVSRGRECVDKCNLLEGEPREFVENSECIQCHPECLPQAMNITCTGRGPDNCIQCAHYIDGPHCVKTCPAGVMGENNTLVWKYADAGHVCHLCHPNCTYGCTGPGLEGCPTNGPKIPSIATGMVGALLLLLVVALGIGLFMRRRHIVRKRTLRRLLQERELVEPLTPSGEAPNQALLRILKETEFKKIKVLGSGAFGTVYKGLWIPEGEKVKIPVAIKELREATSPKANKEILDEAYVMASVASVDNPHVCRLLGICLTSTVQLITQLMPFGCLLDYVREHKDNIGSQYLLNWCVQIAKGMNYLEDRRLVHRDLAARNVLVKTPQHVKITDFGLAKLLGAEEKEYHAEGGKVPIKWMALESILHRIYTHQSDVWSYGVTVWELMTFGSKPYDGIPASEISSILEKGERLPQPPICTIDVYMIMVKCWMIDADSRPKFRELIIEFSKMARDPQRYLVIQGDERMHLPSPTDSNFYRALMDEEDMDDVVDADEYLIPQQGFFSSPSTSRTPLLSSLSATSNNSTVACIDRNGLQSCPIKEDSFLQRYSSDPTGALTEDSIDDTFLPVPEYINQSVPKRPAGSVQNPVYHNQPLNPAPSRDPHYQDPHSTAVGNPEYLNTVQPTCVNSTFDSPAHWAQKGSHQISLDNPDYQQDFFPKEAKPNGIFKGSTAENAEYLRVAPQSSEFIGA
Procedure: Ba/F3 cells expressing EGFR exon 20 insertions (named Ba/F3-EGFR-Exon20-NPG or Ba/F3-EGFR-Exon20-ASV) can proliferate in the absence of IL-3. The anti-proliferative activity of compounds were determined as follows: BaF3-EGFR-Exon20 cells (NPG or ASV) seeded in 96 well plates (2500 cells/well) were treated with test compound (dissolved in DMSO) at a series of concentrations (4-fold dilution, top concentration: 10,000 nM). The plates were incubated for 72 h in a 37° C. incubator with 5% CO2, and the number of viable cells in each well were measured indirectly by CellTiter 96® Aqueous One Solution Cell Proliferation Assay (Promega) This assay is a colorimetric method for determining the number of viable cells through measurement of their metabolic activity by detection of enzymatic conversion of tetrazolium salts into blue formazan derivatives. Reagent (20 μL) was added into each well, and the plates were returned to the incubator for 2 h. The absorbance in each well was then measured at 490 nm using an Envision plate reader (Perkin Elmer).

human EGFR E746-A750 deletion and T790M Mutation (DT), sequence (P00533 other isoform, or with tags, fused parts or gaps T790M/del E746-A750): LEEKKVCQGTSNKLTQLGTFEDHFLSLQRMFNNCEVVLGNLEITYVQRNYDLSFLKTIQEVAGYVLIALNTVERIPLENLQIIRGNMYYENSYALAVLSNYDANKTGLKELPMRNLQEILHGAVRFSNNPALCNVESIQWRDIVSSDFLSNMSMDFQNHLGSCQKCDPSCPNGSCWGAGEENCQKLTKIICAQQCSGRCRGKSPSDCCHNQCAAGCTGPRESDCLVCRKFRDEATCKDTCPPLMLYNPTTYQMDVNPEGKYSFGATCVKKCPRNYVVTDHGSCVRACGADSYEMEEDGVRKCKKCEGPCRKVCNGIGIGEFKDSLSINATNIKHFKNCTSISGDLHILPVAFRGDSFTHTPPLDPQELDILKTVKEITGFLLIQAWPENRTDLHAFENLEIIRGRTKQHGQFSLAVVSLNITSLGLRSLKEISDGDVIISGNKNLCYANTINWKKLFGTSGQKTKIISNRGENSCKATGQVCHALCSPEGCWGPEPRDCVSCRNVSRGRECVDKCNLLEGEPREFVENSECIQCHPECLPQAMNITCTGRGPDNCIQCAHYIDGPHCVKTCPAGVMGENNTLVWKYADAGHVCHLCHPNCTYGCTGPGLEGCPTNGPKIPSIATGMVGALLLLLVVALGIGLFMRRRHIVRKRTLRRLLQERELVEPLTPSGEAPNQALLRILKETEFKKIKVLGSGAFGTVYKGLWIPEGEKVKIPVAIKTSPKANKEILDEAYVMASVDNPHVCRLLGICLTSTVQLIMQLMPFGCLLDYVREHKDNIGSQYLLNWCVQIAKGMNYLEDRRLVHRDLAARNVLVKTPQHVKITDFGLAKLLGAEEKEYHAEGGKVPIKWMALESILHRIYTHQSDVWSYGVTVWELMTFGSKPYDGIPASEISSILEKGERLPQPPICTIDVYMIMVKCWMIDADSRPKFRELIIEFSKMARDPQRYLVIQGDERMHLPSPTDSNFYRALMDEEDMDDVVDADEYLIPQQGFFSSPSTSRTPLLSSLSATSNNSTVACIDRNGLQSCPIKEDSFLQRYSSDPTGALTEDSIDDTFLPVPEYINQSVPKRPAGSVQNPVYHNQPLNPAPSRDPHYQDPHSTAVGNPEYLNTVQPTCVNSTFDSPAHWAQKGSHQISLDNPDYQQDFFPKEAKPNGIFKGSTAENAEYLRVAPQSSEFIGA
human EGFR exon 20 insertion NPG (H773_V774insNPG), sequence (P00533 with tags, fused parts or gaps INS773NPG limits assumed): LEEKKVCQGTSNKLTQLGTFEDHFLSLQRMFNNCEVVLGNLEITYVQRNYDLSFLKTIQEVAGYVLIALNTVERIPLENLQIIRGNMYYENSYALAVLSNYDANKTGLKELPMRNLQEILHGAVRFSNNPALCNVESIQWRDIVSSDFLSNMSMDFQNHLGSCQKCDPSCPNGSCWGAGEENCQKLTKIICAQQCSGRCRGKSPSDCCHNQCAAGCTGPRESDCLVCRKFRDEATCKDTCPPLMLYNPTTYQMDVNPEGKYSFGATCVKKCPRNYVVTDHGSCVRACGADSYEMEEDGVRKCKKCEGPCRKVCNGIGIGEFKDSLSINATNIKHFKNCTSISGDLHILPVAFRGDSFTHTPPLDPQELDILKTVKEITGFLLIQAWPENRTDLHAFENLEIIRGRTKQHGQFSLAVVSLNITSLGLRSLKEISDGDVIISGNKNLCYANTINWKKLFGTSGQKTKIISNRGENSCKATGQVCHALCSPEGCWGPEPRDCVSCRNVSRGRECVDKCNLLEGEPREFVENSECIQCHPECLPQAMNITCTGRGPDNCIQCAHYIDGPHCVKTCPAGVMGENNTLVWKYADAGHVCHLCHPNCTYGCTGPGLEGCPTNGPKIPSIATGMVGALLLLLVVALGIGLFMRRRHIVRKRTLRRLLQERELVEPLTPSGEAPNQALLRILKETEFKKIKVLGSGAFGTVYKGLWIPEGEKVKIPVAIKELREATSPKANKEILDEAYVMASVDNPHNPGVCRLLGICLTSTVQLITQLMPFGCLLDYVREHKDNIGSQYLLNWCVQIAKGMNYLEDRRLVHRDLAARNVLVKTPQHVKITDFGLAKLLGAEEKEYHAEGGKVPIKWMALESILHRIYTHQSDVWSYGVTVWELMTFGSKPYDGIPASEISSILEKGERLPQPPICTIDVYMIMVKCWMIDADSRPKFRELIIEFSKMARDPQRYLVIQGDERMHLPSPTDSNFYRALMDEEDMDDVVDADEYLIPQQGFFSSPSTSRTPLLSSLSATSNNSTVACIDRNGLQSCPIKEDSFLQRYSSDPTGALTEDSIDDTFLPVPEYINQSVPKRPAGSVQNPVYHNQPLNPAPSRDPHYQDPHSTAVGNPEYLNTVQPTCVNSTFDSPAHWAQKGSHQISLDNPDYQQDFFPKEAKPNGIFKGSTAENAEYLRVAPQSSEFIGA

In general, IC50 refers to the concentration needed to halve the response being measured. Take `C=CC(=O)Nc1cc(Nc2nccc(-c3cn(C)c4ccc(C(=O)OC)cc34)n2)c(OC)cc1N(C)CCN(C)C` [Example 81, methyl 3-(2-((5-acrylamido-4-((2-(dimethylamino)ethyl)(methyl)amino)-2-methoxyphenyl)amino)pyrimidin-4-yl)-1-methyl-1H-indole-5-carboxylate]: the IC50 in experiment [1] was < 100 nM; in experiment [2] it was 500 to 1000 nM; in experiment [3], < 100 nM; in experiment [4] it was 100 to 500 nM.
Turning to `C=CC(=O)Nc1cc(Nc2ncc(C(=O)OC(C)C)c(-c3cnc4ccccn34)n2)c(OC)cc1N(C)CCN(C)C` [Example 94, isopropyl 2-((5-acrylamido-4-((2-(dimethylamino)ethyl)(methyl)amino)-2-methoxyphenyl)amino)-4-(imidazo[1,2-a]pyridin-3-yl)pyrimidine-5-carboxylate], the IC50 in experiment [1], in experiment [2], in experiment [3] and in experiment [4] was < 100 nM in each case.
As for `C=CC(=O)Nc1cc(Nc2ncc(C#N)c(-c3nn(C)c4ccccc34)n2)c(OC)cc1N(C)CCN(C)C` [Example 98, N-(5-((5-cyano-4-(1-methyl-1H-indazol-3-yl)pyrimidin-2-yl)amino)-2-((2-(dimethylamino)ethyl)(methyl)amino)-4-methoxyphenyl)acrylamide], the IC50 in experiment [1], in experiment [2], in experiment [3] and in experiment [4] was < 100 nM in each case.
`C=CC(=O)Nc1cc(Nc2ncc(C(=O)O[C@@H]3CCOC3)c(-c3cn(C)c4ccccc34)n2)c(OC)cc1N(C)CCN(C)C` [Example 37, (R)-tetrahydrofuran-3-yl 2-((5-acrylamido-4-((2-(dimethylamino)ethyl)-(methyl)amino)-2-methoxyphenyl)amino)-4-(1-methyl-1H-indol-3-yl)pyrimidine-5-carboxylate]: the IC50 was < 100 nM in experiment [1], 100 to 500 nM in experiment [2], < 100 nM in experiment [3] and < 100 nM in experiment [4].
On to `C=CC(=O)Nc1cc(Nc2ncc(C(=O)OC(C)C)c(-c3cnn4ccccc34)n2)c(OC)cc1N(C)CCN(C)C` [Example 32, isopropyl 2-((5-acrylamido-4-((2-(dimethylamino)ethyl)(methyl)amino)-2-methoxyphenyl)amino)-4-(pyrazolo[1,5-a]pyridin-3-yl)pyrimidine-5-carboxylate], for which the IC50 in experiment [1], in experiment [2], in experiment [3] and in experiment [4] was < 100 nM each time.
As to `C=CC(=O)Nc1cc(Nc2ncc(C(=O)OC(C)C)c(-n3cc(C)c4ccccc43)n2)c(OC)cc1N(C)CCN(C)C` [Example 97, isopropyl 2-((5-acrylamido-4-((2-(dimethylamino)ethyl)(methyl)amino)-2-methoxyphenyl)amino)-4-(3-methyl-1H-indol-1-yl)pyrimidine-5-carboxylate], the IC50 is < 100 nM in experiment [1], 100 to 500 nM in experiment [2], < 100 nM in experiment [3] and 100 to 500 nM in experiment [4].
As to `C=CC(=O)Nc1cc(Nc2ncc(C(=O)OC)c(-c3cn(C)c4ccccc34)n2)c(OC)cc1N(C)CC1CCCN1C` (stereo not shown) [Example 16, methyl 2-((5-acrylamido-2-methoxy-4-(methyl((1-methylpyrrolidin-2-yl)methyl)amino)phenyl)amino)-4-(1-methyl-1H-indol-3-yl)pyrimidine-5-carboxylate], the IC50 in experiment [1] was < 100 nM; in experiment [2], 100 to 500 nM; in experiment [3], < 100 nM; in experiment [4], < 100 nM.
Consider `C=CC(=O)Nc1cc(Nc2ncc(C(=O)OCC#N)c(-c3cn(C)c4ccccc34)n2)c(OC)cc1N(C)CCN(C)C` [Example 38, cyanomethyl 2-((5-acrylamido-4-((2-(dimethylamino)ethyl)(methyl)amino)-2-methoxyphenyl)amino)-4-(1-methyl-1H-indol-3-yl)pyrimidine-5-carboxylate], for which the IC50 in experiment [1], in experiment [2], in experiment [3] and in experiment [4] was < 100 nM in each case.
Regarding `C=CC(=O)Nc1cc(Nc2ncc(C(=O)OC(C)C)c(-c3nn(C)c4ccccc34)n2)c(OC)cc1N(C)CCN(C)C` [Example 59, isopropyl 2-((5-acrylamido-4-((2-(dimethylamino)ethyl)(methyl)amino)-2-methoxyphenyl)amino)-4-(1-methyl-1H-indazol-3-yl)pyrimidine-5-carboxylate], the IC50 in experiment [1], in experiment [2], in experiment [3] and in experiment [4] was < 100 nM in each case.
Turning to `C=CC(=O)Nc1cc(Nc2ncc(C(=O)OC)c(-n3ccc4ccccc43)n2)c(OC)cc1N(C)C[C@H]1CCCN1C` [Example 63, methyl (R)-2-((5-acrylamido-2-methoxy-4-(methyl((1-methylpyrrolidin-2-yl)methyl)amino)phenyl)amino)-4-(1H-indol-1-yl)pyrimidine-5-carboxylate], the 50% inhibitory concentration (IC50) was < 100 nM in experiment [1], 500 to 1000 nM in experiment [2], < 100 nM in experiment [3] and < 100 nM in experiment [4].
On to `C=CC(=O)Nc1ccc(OC)c(Nc2ncc(Cl)c(-c3cn(C)c4cc(OCCN5CCN(C)CC5)ccc34)n2)c1` [Example 18, N-(3-((5-chloro-4-(1-methyl-6-(2-(4-methylpiperazin-1-yl)ethoxy)-1H-indol-3-yl)pyrimidin-2-yl)amino)-4-methoxyphenyl)acrylamide], for which the concentration for half-maximal inhibition (IC50) in experiment [1] was 100 to 500 nM; in experiment [2], > 1000 nM; in experiment [3], < 100 nM; in experiment [4], > 1000 nM.
Consider `C=CC(=O)Nc1ccc(OC)c(Nc2ncc(C#N)c(-c3cn(C)c4cc(OCCN5CCCC5)ccc34)n2)c1` [Example 20, N-(3-((5-cyano-4-(1-methyl-6-(2-(pyrrolidin-1-yl)ethoxy)-1H-indol-3-yl)pyrimidin-2-yl)amino)-4-methoxyphenyl)acrylamide], for which the IC50 in experiment [1] was < 100 nM; in experiment [2] it was 500 to 1000 nM; in experiment [3], < 100 nM; in experiment [4] it was 100 to 500 nM.
In the case of `C=CC(=O)Nc1cc(Nc2ncc(C(=O)OC(C)CC)c(-c3cn(C)c4ccccc34)n2)c(OC)cc1N(C)CCN(C)C` (stereo not shown) [Example 29, sec-butyl 2-((5-acrylamido-4-((2-(dimethylamino)ethyl)(methyl)amino)-2-methoxyphenyl)amino)-4-(1-methyl-1H-indol-3-yl)pyrimidine-5-carboxylate], the 50% inhibitory concentration (IC50) in experiment [1], in experiment [2], in experiment [3] and in experiment [4] was < 100 nM throughout.
For the molecule `C=CC(=O)Nc1cc(Nc2ncc(C(=O)OC(C)C)c(-n3ccc4ccccc43)n2)c(OC)cc1N(C)CCN(C)C` [Example 15, isopropyl 2-((5-acrylamido-4-((2-(dimethylamino)ethyl)(methyl)amino)-2-methoxyphenyl)amino)-4-(1H-indol-1-yl)pyrimidine-5-carboxylate], the IC50 in experiment [1], in experiment [2], in experiment [3] and in experiment [4] was < 100 nM throughout.
With `C=CC(=O)Nc1cc(Nc2ncc(C(=O)OC3CCC3)c(-c3cn(C)c4ccccc34)n2)c(OC)cc1N(C)CCN(C)C` [Example 14, cyclobutyl 2-((5-acrylamido-4-((2-(dimethylamino)ethyl)(methyl)amino)-2-methoxyphenyl)amino)-4-(1-methyl-1H-indol-3-yl)pyrimidine-5-carboxylate], the IC50 in experiment [1], in experiment [2], in experiment [3] and in experiment [4] was < 100 nM in each case.
In the case of `C=CC(=O)Nc1cc(Nc2ncc(NC(=O)C(C)C)c(-c3cn(C)c4ccccc34)n2)c(OC)cc1N(C)CCN(C)C` [Example 39, N-(2-((2-(dimethylamino)ethyl)-(methyl)amino)-5-((5-isobutyramido-4-(1-methyl-1H-indol-3-yl)pyrimidin-2-yl)amino)-4-methoxyphenyl)-acrylamide], the IC50 is < 100 nM in experiment [1], > 1000 nM in experiment [2], > 1000 nM in experiment [3] and 100 to 500 nM in experiment [4].
Regarding `C=CC(=O)Nc1cc(Nc2ncnc(-c3c(-c4ccccc4)n(C)c4ccccc34)n2)c(OC)cc1N(C)CCN(C)C` [Example 3, N-(2-((2-(dimethylamino)ethyl)(methyl)amino)-4-methoxy-5-((4-(1-methyl-2-phenyl-1H-indol-3-yl)-1,3,5-triazin-2-yl)amino)phenyl)acrylamide], the IC50 was < 100 nM in experiment [1], 100 to 500 nM in experiment [2], < 100 nM in experiment [3] and < 100 nM in experiment [4].
As for `C=CC(=O)Nc1cc(Nc2ncc(C(=O)OC)c(-c3cn(C)c4ccccc34)n2)c(OC)cc1N(C)CCN(C)C` [Example 8, methyl 2-((5-acrylamido-4-((2-(dimethylamino)ethyl)(methyl)amino)-2-methoxyphenyl)amino)-4-(1-methyl-1H-indol-3-yl)pyrimidine-5-carboxylate], the IC50 in experiment [1], in experiment [2], in experiment [3] and in experiment [4] was < 100 nM in each case.
Regarding `C=CC(=O)Nc1cc(Nc2ncc(C(=O)OCC3CC3)c(-c3cn(C)c4ccccc34)n2)c(OC)cc1N(C)CCN(C)C` [Example 13, cyclopropylmethyl 2-((5-acrylamido-4-((2-(dimethylamino)ethyl)(methyl)amino)-2-methoxyphenyl)amino)-4-(1-methyl-1H-indol-3-yl)pyrimidine-5-carboxylate], the IC50 in experiment [1], in experiment [2], in experiment [3] and in experiment [4] was < 100 nM throughout.
